Some test systems named below: SN12C renal; SF-295 CNS; NCI-H23 lung; SNB-19 CNS; HOP-62 NSCLC; CAKI-1 renal; OVCAR-5 ovarian; SK-OV-3 ovarian; SR leukemia; SK-MEL-28 melanoma.
What all share (assay): NCI tumour cell line growth inhibition, 48 h

The record followed here is PubChem BioAssay (NCI).

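Where inhibition never reached the appropriate level, the endpoint shown equals the highest concentration tested. Otherwise, values were interpolated linearly from a five-concentration, 48-hour dose response in 96-well plates. The concentration for 50% growth inhibition is given as GI50. Definition used: TGI = concentration required for complete inhibition of growth.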

In the case of `O=c1c2ccccc2c(C=NCCNCCO)c2oc3ccccc3n12`, the GI50 was 4.34 µM in the assay on SN12C renal; 3.72 µM in the assay on SF-295 CNS; 19.5 µM with NCI-H23 lung; 6.33 µM with SNB-19 CNS; 13 µM in the assay with HOP-62 NSCLC; 4.08 µM in the assay on CAKI-1 renal. In addition, the GI50 is 15.7 µM with OVCAR-5 ovarian, 3.58 µM in the assay with SK-OV-3 ovarian and 2.48 µM in the assay on SR leukemia. Also, the TGI in the assay on SN12C renal is 18.3 µM; in the assay with SF-295 CNS, 13.6 µM; with NCI-H23 lung, 33.6 µM; in the assay on SNB-19 CNS it was 19.6 µM; in the assay with HOP-62 NSCLC, 25.6 µM; in the assay on CAKI-1 renal, 15.5 µM. Besides, the TGI in the assay on OVCAR-5 ovarian was 29.1 µM; in the assay on SK-OV-3 ovarian it was 15.9 µM; in the assay with SR leukemia it was 6.62 µM.
Consider `CC(=O)OC1CC(C)c2c1ncnc2N1CCN(C(=O)OC(C)(C)C)CC1` (stereo unspecified), for which the GI50 in the assay on SN12C renal was 79.4 µM; in the assay on NCI-H23 lung it was 58.9 µM; with SNB-19 CNS, 78.5 µM; in the assay with HOP-62 NSCLC, 45.4 µM; in the assay with CAKI-1 renal, 63.8 µM; with OVCAR-5 ovarian, 99.2 µM. Besides, the GI50 was 53.7 µM in the assay on SK-OV-3 ovarian, 21.6 µM with SR leukemia and 72.9 µM in the assay on SK-MEL-28 melanoma. Also, the TGI in the assay with SN12C renal, with NCI-H23 lung, in the assay with SNB-19 CNS, in the assay on HOP-62 NSCLC, in the assay with CAKI-1 renal and in the assay with OVCAR-5 ovarian was above 100 µM in each case. For the same compound, the TGI was above 100 µM with SK-OV-3 ovarian, 63.7 µM in the assay with SR leukemia and above 100 µM in the assay on SK-MEL-28 melanoma.
Regarding `CC(=O)C1C(=O)C(=O)N(c2ccc(Cl)cc2C)C1=O` (stereo unspecified), the TGI in the assay with SN12C renal, with SF-295 CNS, with NCI-H23 lung, in the assay on SNB-19 CNS, in the assay with HOP-62 NSCLC and in the assay on OVCAR-5 ovarian was above 100 µM in each case. Further, the TGI in the assay with SR leukemia and in the assay on SK-MEL-28 melanoma was above 100 µM throughout.
Take `CNC1=C(Br)C(=O)C2=C(C1=O)C1C3=C(C(=O)C=CC3=O)C2c2ccccc21` (stereo unspecified): the GI50 in the assay with SN12C renal was 1.65 µM; with SF-295 CNS, 19.2 µM; in the assay on NCI-H23 lung, 5.76 µM; with SNB-19 CNS it was 14.4 µM; in the assay on HOP-62 NSCLC it was 7.68 µM; in the assay with CAKI-1 renal, 6.14 µM. For the same compound, the GI50 in the assay with OVCAR-5 ovarian was 6.96 µM; in the assay on SK-OV-3 ovarian it was 10.3 µM; in the assay on SK-MEL-28 melanoma, 3.39 µM. Further, the TGI was 3.21 µM in the assay on SN12C renal; 45.8 µM in the assay with SF-295 CNS; 25.9 µM in the assay on NCI-H23 lung; 67.4 µM with SNB-19 CNS; 23.6 µM in the assay with HOP-62 NSCLC; 13.9 µM in the assay on CAKI-1 renal. Also, the TGI with OVCAR-5 ovarian is 31.4 µM; with SK-OV-3 ovarian, above 55.2 µM; in the assay on SK-MEL-28 melanoma it was above 24.7 µM.
For the compound `CCOC(=O)NC(=O)c1cn(-c2ccc(CCOC(=O)CCCCCCCCC(=O)OCCc3ccc(-n4cc(C(=O)NC(=O)OCC)c(=O)[nH]c4=O)cc3)cc2)c(=O)[nH]c1=O`, the TGI in the assay on SN12C renal, in the assay on SF-295 CNS, in the assay on NCI-H23 lung, in the assay with SNB-19 CNS, in the assay with HOP-62 NSCLC and in the assay with OVCAR-5 ovarian was above 100 µM each time. Further, the TGI in the assay with SK-OV-3 ovarian, in the assay on SR leukemia and in the assay with SK-MEL-28 melanoma was above 100 µM throughout.
Consider `c1ccc(CN2CCC3(CC2)ONC2=NCCN23)cc1`, for which the GI50 in the assay with SN12C renal was 27.1 µM; with SF-295 CNS, above 100 µM; with NCI-H23 lung, 54.9 µM; with SNB-19 CNS, above 100 µM; with HOP-62 NSCLC it was above 100 µM; in the assay with CAKI-1 renal it was 30.5 µM. Besides, the GI50 was 40.8 µM in the assay with OVCAR-5 ovarian, 60.8 µM in the assay on SK-OV-3 ovarian and above 100 µM with SK-MEL-28 melanoma. The TGI was 82 µM in the assay on SN12C renal; above 100 µM in the assay on SF-295 CNS; above 100 µM with NCI-H23 lung; above 100 µM with SNB-19 CNS; above 100 µM in the assay on HOP-62 NSCLC; above 100 µM with CAKI-1 renal. The TGI with OVCAR-5 ovarian, in the assay on SK-OV-3 ovarian and with SK-MEL-28 melanoma was above 100 µM each time.
For the compound `CN(C)CC1CCC(CN(C)C)C1=NO` (stereo unspecified), the TGI in the assay with SN12C renal is above 100 µM; in the assay with SF-295 CNS it was above 10 µM; in the assay with HOP-62 NSCLC, above 100 µM; with CAKI-1 renal, above 100 µM; in the assay with OVCAR-5 ovarian, above 100 µM; in the assay on SR leukemia, above 100 µM. For the same compound, the TGI in the assay with SK-MEL-28 melanoma is above 100 µM.
Consider `NC(N)=NS(=O)(=O)c1ccc(NC(=O)c2ccc(Cl)c3c(Nc4ccc(S(=O)(=O)N=C(N)N)cc4)c4ccccc4nc23)cc1`, for which the TGI in the assay on SN12C renal, in the assay with SF-295 CNS, in the assay with NCI-H23 lung, in the assay with SNB-19 CNS, in the assay on HOP-62 NSCLC and in the assay with CAKI-1 renal was above 100 µM in each case. For the same compound, the TGI in the assay on OVCAR-5 ovarian, in the assay on SK-OV-3 ovarian and in the assay on SK-MEL-28 melanoma was above 100 µM in each case.
As for `CN1C(=O)NC2(O)c3ccccc3C(=O)C12O` (stereo unspecified), the TGI in the assay on SF-295 CNS, in the assay with NCI-H23 lung, with SNB-19 CNS, in the assay on CAKI-1 renal, in the assay on OVCAR-5 ovarian and in the assay with SK-OV-3 ovarian was above 100 µM in each case. In addition, the TGI in the assay with SR leukemia and in the assay with SK-MEL-28 melanoma was above 100 µM each time.
In the case of `CP(=O)(CCSc1ccccc1)c1ccccc1` (stereo unspecified), the TGI with SN12C renal, with SF-295 CNS, with NCI-H23 lung, in the assay with SNB-19 CNS, with HOP-62 NSCLC and in the assay on CAKI-1 renal was above 100 µM in each case. In addition, the TGI in the assay with SK-OV-3 ovarian, in the assay with SR leukemia and in the assay with SK-MEL-28 melanoma was above 100 µM in each case.
Turning to `COC(=O)c1c(C(=O)OC)c(C(=O)OC)c(C(=O)OC)c1C(=O)OC`, the TGI in the assay on SN12C renal, in the assay with SF-295 CNS, in the assay on NCI-H23 lung, with SNB-19 CNS, with HOP-62 NSCLC and in the assay with CAKI-1 renal was above 100 µM in each case. The TGI in the assay with OVCAR-5 ovarian, with SK-OV-3 ovarian and in the assay with SK-MEL-28 melanoma was above 100 µM each time.
